Assay results taken from patent publication US9234004B2, “Antimicrobial peptides” (Agency for Science, Technology and Research, priority 2010, dated 2016).
Converted amounts (≈) assume the structure as drawn. Like-named read-outs stand apart in the source and are kept apart here. Ends that are not written are not given here. Peptide text beside a SMILES is read from it.

Key:
Assay type in all cases: cell-based
B. subtilis = system: B. subtilis
Method: (§1) Microbial cells were firstly re-constituted from its lyophilized form according to the manufacturer's protocol. Bacterial cells were cultured in tryptic soy broth (TSB) at 37° C., and yeast cells were cultured in yeast mould broth (YMB) at room temperature under constant shaking at 100 rpm. Broth containing an antimicrobial peptide was prepared at various concentrations (0.98, 1.95, 3.90, 7.81, 15.63, 31.25, 62.5, 125, 250, 500 mg/L) and transferred into a 96-well tissue culture plate (100 μL/well). Microorganism was first inoculated overnight to enter its log growth-phase. An equal volume of microorganism solution (100 μL) was added into each well of the 96-well plate containing the antimicrobial peptide. Prior to this mixing, the concentration of microorganism solution was adjusted to give an initial optical density (O.D.) reading of 0.1-0.2 at 600 nm wavelength. The growth of the microorganism was observed upon introducing the antimicrobial peptide by measuring the O.D. readings at 2 hour intervals for up to 8 hours. […] Broth containing microbial cells was used as the negative control, and each test was carried out in 6 replicates. The standard deviations of the 6 readings were reported as the error bars.

C. albicans = system: C. albicans
Method: as §1

E. coli = system: E. coli
Method: as §1

P. aeruginosa = system: P. aeruginosa
Method: as §1

rat red blood cells = assay: Hemolytic activity test
Method: Peptides were obtained from GL Biochem (Shanghai, China), and their fidelity was further confirmed via matrix-assisted laser desorption/ionization time-of-flight mass spectroscopy (MALDI-TOF MS, Model Autoflex II, Bruker Daltonics Inc., U.S.A.), using α-cyano-4-hydroxycinnamic acid as matrix. The purity of the peptides was also tested to be more than 95% with analytical reverse phase (RP)-HPLC. α-Cyano-4-hydroxycinnamic acid (HCCA) was purchased from Sigma-Aldrich (Singapore) and used in saturated acetonitrile/water (1:1 volume ratio) after being re-crystallized. Sodium dodecyl sulphate (SDS) micelle solution (10% w/v in DI water) was obtained from 1st Base (Malaysia) and used upon dilution to the desirable concentration range. Tryptic soy broth (TSB) powder and yeast mould broth (YMB) powder were purchased from BD Diagnostics (Singapore) and used to prepare the microbial broths according to the manufacturer's instructions. Phosphate-buffered saline solution at 10× concentration was purchased from 1st Base (Malaysia) and used after dilution to the desired concentration. Ethanol (analytical grade, 99%) and glutaraldehyde (synthetic grade, 50% in H2O) were purchased from Sigma Aldrich (Singapore) and used as received. […] Red blood cells used in the experiments were obtained from rats maintained at the Animal Handling Units of the Biomedical Research Centers (Singapore). Human peripheral blood mononuclear cells (PBMCs) were extracted from healthy blood donors and maintained with RPMI medium supplemented with 10% lowendotoxin fetal bovine serum (FBS) and 1% penicillin-streptomycin. Granulocyte macrophage-colony stimulating factor (GM-CSF) and lipopolysaccharide were purchased from Sigma-Aldrich and used as received.
Fresh red blood cells were washed with PBS for three times, and were subjected to 25 times dilution with PBS to reach a concentration of approximately 4% (in volume) of the blood cells. The red blood cell suspension (100 μL) was placed into a 96-well cell culture plate and mixed with 100 μL of the antimicrobial peptide solution in PBS at concentrations of 0.98, 1.95, 3.90, 7.81, 15.63, 31.25, 62.5, 125, 250, 500 mg/L. The mixture was then incubated at 37° C. for 1 hour to allow for the hemolysis process to take place. At the end of incubation time, the non-hemolysed red blood cells were separated by centrifugation at 13000 g for 5 minutes. Aliquots (100 μL) of the supernatant were transferred into a new 96-well plate, and the hemoglobin release was measured by checking the UV-absorbance of the samples at 576 nm using a microplate reader (TECAN, Switzerland). Two controls were provided in this assay: an untreated red blood cell suspension in PBS was used as the negative control, and a solution containing red blood cells lysed with 0.1% Triton-X was used as the positive control. Each assay was performed in 6 replicates, and the data were expressed as means and standard deviations of the 6 replicates. Percentage of hemolysis was calculated using the following formula: Hemolysis (%)=[(O.D.576 nm of the treated sample−O.D.576 nm of the negative control)/(O.D.576 nm of positive control−O.D.576 nm of negative control)]×100%. Field Emission-Scanning Electron Microscopy (FE-SEM) Analysis of Bacterial Cells

[1] = 8 hours incubation, tryptic soy broth, 37° C.
[2] = 8 hours incubation, yeast mould broth, room temperature
[3] = rat red blood cells, 37° C., 1 hour

Compound	MIC B. subtilis (B. subtilis; [1]) [µg/mL]	MIC C. albicans (C. albicans; [2]) [µg/mL]	MIC E. coli (E. coli; [1]) [µg/mL]	MIC P. aeruginosa (P. aeruginosa; 8 hours incubation) [µg/mL]	HC50 (50% hemolytic concentration) (rat red blood cells; [3]) [mg/L]	MIC B. subtilis (B. subtilis; 8 h) [µg/mL]	MIC C. albicans (C. albicans; 8 h) [µg/mL]	MIC E. coli (E. coli; 8 h) [µg/mL]	MIC P. aeruginosa (P. aeruginosa; 8 h) [µg/mL]	HC50 (50% hemolytic concentration) (rat red blood cells; red cells of rat, 1 h) [mg/L]	hemolysis at the MIC against B. subtilis (rat red blood cells)	hemolysis at the MIC level for C. albicans (rat red blood cells)
MLLKKLLKKLLKKM-NH2 [MLLKKLLKKLLKKM-NH2]	31	125	250	31	~158							
MLLKKLLKKM-NH2 [MLLKKLLKKM-NH2]						125	500	>500	500	>2500		
FFRRFFRRFFRRFFRR-NH2 [(FFRR)4, FFRRFFRRFFRRFFRR-NH2]						20	>50	>50		~26	around 50%	
CC(C)C[C@H](NC(=O)[C@H](CC(C)C)NC(=O)[C@H](CCCCN)NC(=O)[C@H](CCCCN)NC(=O)[C@H](CC(C)C)NC(=O)[C@H](CC(C)C)NC(=O)[C@H](CCCCN)NC(=O)[C@H](CCCCN)NC(=O)[C@H](CC(C)C)NC(=O)[C@H](CC(C)C)NC(=O)[C@@H](N)CS)C(=O)N[C@@H](CCCCN)C(=O)N[C@@H](CCCCN)C(=O)N[C@@H](CS)C(N)=O [CLLKKLLKKLLKKC-NH2] (H-CLLKKLLKKLLKKC-NH2)	31 (≈ 18.5 µM)	125 (≈ 74.8 µM)	125 (≈ 74.8 µM)	125 (≈ 74.8 µM)	~82							
LLRRLLRRLLRR-NH2 [(LLRR)3, LLRRLLRRLLRR-NH2]						15.6	500	>500		>500	less than 5%	12-24%
FFRRFFRRFFRR-NH2 [(FFRR)3, FFRRFFRRFFRR-NH2]						31.3	125	>500		>500	less than 5%	12-24%
LLKKLLKKLLKK-NH2 [(LLKK)3, LLKKLLKKLLKK-NH2]						31.3	125	>500		>500	less than 5%	
AARRAARRAARR-NH2 [(AARR)3, AARRAARRAARR-NH2]						>500	>500	>500		>500		
LLKKLLKKC-NH2 [LLKKLLKKC-NH2]						125	250	>500	63	>2500		
LLRRLLRRLLRRLLRR-NH2 [(LLRR)4, LLRRLLRRLLRRLLRR-NH2]						10	>50	>50		~12	around 50%	
FFRRFFRR-NH2 [(FFRR)2, FFRRFFRR-NH2]						125	>500	>500		>500		
CC(C)C[C@H](NC(=O)[C@H](CC(C)C)NC(=O)[C@H](CCCCN)NC(=O)[C@H](CCCCN)NC(=O)[C@H](CC(C)C)NC(=O)[C@H](CC(C)C)NC(=O)[C@@H](N)CS)C(=O)N[C@@H](CCCCN)C(=O)N[C@@H](CCCCN)C(=O)N[C@@H](CS)C(N)=O [CLLKKLLKKC-NH2] (H-CLLKKLLKKC-NH2)						125 (≈ 105 µM)	250 (≈ 210 µM)	225 (≈ 189 µM)	125 (≈ 105 µM)	>2500		
LLKKLLKKLLKKC-NH2 [LLKKLLKKLLKKC-NH2]	16	63	150	16	~402							
